The results in this text go back to PubChem BioAssay AID1645867 (Buhrlage Lab, Dana-Farber Cancer Institute and Novartis …, 2021).

The structures appear in SMILES notation. The source made the active and inactive calls. No rule for the calls is given here.

The target in the assay is Ubiquitin carboxyl-terminal hydrolase isozyme L1 (Homo sapiens) (UniProt P09936). As to the kind of experiment: UCH-L1 deubiquitylase inhibitors, biochemical concentration-response, hit retest (AID 1645867). As to conditions: recombinant UCHL1 deubiquitinase activity assay.
Chain of Ubiquitin carboxyl-terminal hydrolase isozyme L1 (Homo sapiens) (P09936 whole entry, looked up): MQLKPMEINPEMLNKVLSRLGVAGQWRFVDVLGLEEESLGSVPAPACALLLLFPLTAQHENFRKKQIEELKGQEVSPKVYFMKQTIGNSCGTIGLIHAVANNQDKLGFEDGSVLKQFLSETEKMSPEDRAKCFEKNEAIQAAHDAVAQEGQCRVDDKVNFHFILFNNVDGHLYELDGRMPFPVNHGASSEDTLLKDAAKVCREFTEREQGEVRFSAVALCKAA
As usually defined, the IC50 is the point on the concentration scale where inhibition reaches its midpoint. As for `CC1=C(O)C(=O)C=C2C1=CC=C1[C@@]2(C)CC[C@@]2(C)[C@@H]3C[C@](C)(C(=O)O)CC[C@]3(C)CC[C@]12C`, the IC50 was > 25 µM (inactive). The value for `COc1ccc(CNC(=O)c2ccc3c(=O)nc4c(-c5cccc(C)c5)n[nH]n4c3c2)cc1` was > 25 µM (inactive); that for `O=C(O)C1C(C(=O)Nc2ccccc2)C2(c3ccccc3)C(=O)C1(c1ccccc1)C(c1ccccc1)=C2c1ccccc1` (centres undefined) was > 25 µM (inactive). The value for `O=C(NCc1ccco1)c1cccc(S(=O)(=O)N2CC(c3ccccc3)CC2=O)c1` (centres undefined) was > 25 µM (inactive); that for `Cc1oc2cc3oc(=O)c(CCC(=O)N4CC[C@@]5(O)CCCC[C@H]5C4)c(C)c3cc2c1C` was > 25 µM (inactive); that for `C=Cc1cc(OC)c2c(c1)c(=O)oc1c2cc(OC)c2c(O)ccc([C@H]3OC(C)[C@@H](OC(C)=O)C(N(C)C)C3O)c21` (some centres undefined) was > 25 µM (inactive).

With `Cc1ccc2c(c1)c(=O)c(C(=O)c1ccccc1)cn2CC(=O)Nc1ccccc1`, the IC50 was > 25 µM (inactive). The value for `Fc1ccc(NCc2nc3ccccc3n2Cc2ccccc2)cc1` was > 25 µM (inactive). In the case of `COc1ccc(NC(=O)[C@H](C)NC(=O)c2cc3c(OC)cccc3[nH]2)cc1Cl` it was > 25 µM (inactive); in that of `Cc1ccc(S(=O)(=O)NCc2ccc(C(=O)NCCc3ccc(S(N)(=O)=O)cc3)cc2)cc1`, > 25 µM (inactive); in that of `O=C(NC1(O)C(=O)c2ccccc2C1=O)c1cccc2c1-c1ccccc1C2=O`, 15.6 µM. Regarding `Cc1cc(Nc2ncc(Cl)cc2Cl)n(-c2ccccc2)n1`, the IC50 was > 25 µM (inactive). Turning to `O=C(NCCc1nc2ccccc2n1CCOc1ccccc1Cl)C1CCCCC1`, the IC50 was > 25 µM (inactive). The value for `COc1cccc(NC(=O)Cn2c3ccccc3n3c(=O)cc(-c4ccccc4)nc23)c1` was > 25 µM (inactive).

`C/C=C/C=C/[C@@H]1Cc2cc(O)cc(O)c2O1`: the IC50 is 10.9 µM. For the compound `C=C(CCC(C)(C)/C=C/CC/C(C)=C/COC(COP(=O)(O)O[C@@H]1OC(C(N)=O)[C@@](C)(O)[C@H](OC(N)=O)C1O[C@@H]1OC(CO[C@@H]2OC(CO)[C@H](O)[C@H](O)C2O)[C@H](O[C@@H]2OC(CO)[C@H](O[C@@H]3OC(C(=O)NC4=C(O)CCC4=O)[C@H](O)[C@H](O)C3O)[C@H](O)C2NC(C)=O)C(O)[C@@H]1NC(C)=O)C(=O)O)CC1C(=C)CCCC1(C)C` (some centres undefined), the IC50 is > 25 µM (inactive). The value for `CC(C)(C)n1nc2c(c1NC(=O)Cc1ccccc1)CSC2` was > 25 µM (inactive); that for `COc1cccc(C(=O)N2CCc3nc(-c4ccc(F)cc4)ncc3C2)c1` was > 25 µM (inactive); that for `C=C/C(C)=C/[C@@]1(C)SC(=O)C(C)=C1O` was 5.87 µM. For `COc1ccc(CCn2c(-c3ccccc3)nc3c(c(=O)c4ccccc4n3C)c2=O)cc1OC`, the IC50 is > 25 µM (inactive). In the case of `O=C(Nc1ccc(Cl)c(Cl)c1)c1cccc(N2CCCCS2(=O)=O)c1` it was > 25 µM (inactive).

Regarding `CCC(C(=O)C(C)C(O)C(C)CCc1ccc(C)c(O)c1C(=O)O)C1OC(CC)(C2CCC(O)(CC)C(C)O2)CC1C` (centres undefined), the IC50 was > 25 µM (inactive). As for `O=c1c(O)c(-c2ccc(O)c(O)c2)oc2cc(O)cc(O)c12`, the IC50 is 2.32 µM. In the case of `CC(=O)NS(=O)(=O)c1ccc(NC(=O)/C=C/c2cn(-c3ccccc3)nc2-c2ccccc2)cc1` it was > 25 µM (inactive). The value for `CCOc1ccc2c(c1)c(=O)c(C(=O)c1ccccc1)cn2CC(=O)Nc1ccc(OC)cc1` was > 25 µM (inactive). In the case of `CC1OC2CC(O)C1(O)C1=C2C(O)=C(C(N)=O)C(=N)C1=O` (centres undefined) it was 11.6 µM; in that of `CCOc1ccc(C(c2c(NC(=O)c3ccccc3)sc(C)c2C)N2CCN(CCO)CC2)cc1` (centres undefined), > 25 µM (inactive). As for `CCC(C)Nc1ncnc2c1CN(C1CCCNCC1)C(=O)CN2C` (centres undefined), the IC50 was > 25 µM (inactive). In the case of `CCOc1ccc(C2/C(=C(\O)c3ccccc3)C(=O)C(=O)N2c2nc3ccc(F)cc3s2)cc1` (centres undefined), the IC50 is > 25 µM (inactive).
